Data on 25 compounds can be found in ChEMBL document CHEMBL5518155, “Recent advances on dual inhibitors targeting HIV reverse transcriptase associated polymerase and ribonuclease H” (Eur J Med Chem, 2023).

As usually defined, the EC50 is the midpoint of the concentration-response curve. The term IC50 denotes the point on the concentration scale where inhibition reaches its midpoint. Broadly, the CC50 is the concentration at which the toxic effect on the cells reaches its halfway point.

The structures appear in SMILES notation.

Series [1] has as its system Hepatitis B virus. Put plainly: Antiviral activity against HBV infected in AML12HBV10 cells assessed as reduction viral replication incubated for 48 hrs. It is filed as functional, organism-based. The conditions noted are these: AML12HBV10, 48 h.
Series [2] has as its system Hepatitis B virus. Put plainly: Antiviral activity against HBV infected in human HepDES19 cells assessed as reduction in cccDNA accumulation by southern blot analysis. It is filed as functional, organism-based.
For series [3], the target named is T1, Human immunodeficiency virus type 1 reverse transcriptase (Human immunodeficiency virus 1, UniProt Q72547). Kind of series: Inhibition of HIV-1 RNase H polymerase activity.
The subject of series [4] is Human immunodeficiency virus 1. Put plainly: Antiviral activity against HIV-1 harboring reverse transcriptase […] mutant infected in human MT4 cells assessed as reduction in virus-induced cytopathic effect. It is filed as functional, organism-based. The conditions noted are these: Human immunodeficiency virus 1, MT4. Background: Protection from cytopathic effect is a common read-out in antiviral testing.

Series [5] is described as follows: Cytotoxicity against HEK-293T cells assessed as reduction in cell growth measured for 72 hrs by MTT assay. It is filed as toxicity, cell-based. As to conditions: human. (Tetrazolium assays rely on reduction of a dye to a coloured formazan, in cell work by metabolically active cells.)
A short description of series [6]: Inhibition of HIV-1 RNA-dependent […]. Also on record: species or system Human immunodeficiency virus 1.
Series [7] concerns the target T1, Human immunodeficiency virus type 1 reverse transcriptase. Put plainly: Inhibition of recombinant HIV-1 reverse transcriptase associated RNase H expressed in Escherichia coli BL21 (DE3) using 5-GTTTTCTTTTCCCCCCTGAC-3 Fluorescein/5CAAAAGAAAAGGGGGGACUG-3-Dabcyl as substrate incubated for 1 hr by multilabel counter plate reader method.
The test system of series [8] is Human alphaherpesvirus 1. Put plainly: Antiviral activity against HSV-1 infected in African green monkey Vero cells by plaque reduction assay. It is filed as functional, organism-based. The conditions noted are these: Human alphaherpesvirus 1, Vero. In general terms: Plaque reduction counts the foci of infection that form in a cell layer.
Series [9] deals with Human immunodeficiency virus 1. Put plainly: Antiviral activity against HIV1. It is filed as functional, organism-based.
The target of series [10] is T1, Human immunodeficiency virus type 1 reverse transcriptase. Kind of series: Inhibition of HIV-1 reverse transcriptase associated RNA-dependent DNA polymerase.
The nature of series [11]: Cytotoxicity against african green monkey Vero E6 cells incubated for 24 hrs by Cell-titer 96 cell proliferation assay. It is filed as toxicity, cell-based, Vero C1008. As to conditions: chlorocebus sabaeus.
For series [12], the system named is Human immunodeficiency virus 1. Put plainly: Antiviral activity against wild type HIV-1 IIIB infected in human MT4 cells assessed as protection against virus-induced cytopathic effect incubated for 5 days by MTT assay. It is filed as functional, organism-based. The conditions noted are these: Human immunodeficiency virus 1, IIIB, MT4, 120 h.
In series [13] the test system is TZM. Put plainly: Cytotoxicity against human TZM-bl cells assessed as reduction in viability incubated for 48 hrs by MTT assay. It is filed as functional.
Series [14] deals with T1, Human immunodeficiency virus type 1 reverse transcriptase. Put plainly: Inhibition of N-terminal 6-his-tagged HIV-1 reverse transcriptase RNase H (427 to 560 residues) transfected in Escherichia coli BL21 (DE3).
The subject of series [15] is Human immunodeficiency virus 1. Kind of series: Antiviral activity against wild-type HIV-1 IIIB infected in human MT4 cells assessed as virus-induced cytopathicity treated for 5 days by MTT assay. The conditions noted are these: Human immunodeficiency virus 1, IIIB, MT4, 120 h. It is filed as functional, organism-based.
Series [16] is described as follows: Inhibition of Escherichia coli DNA polymerase I.
In series [17] the target is T1, Human immunodeficiency virus type 1 reverse transcriptase. Kind of series: Inhibition of recombinant HIV-1 reverse transcriptase associated RNA-dependent DNA polymerase activity incubated for 30 mins by liquid scintillation method.
Series [18] has the same target. Kind of series: Inhibition of HIV-1 RNase H.
Series [19] deals with Human alphaherpesvirus 1. Kind of series: Antiviral activity against HSV-1 KOS infected in African green monkey Vero cells assessed as reduction in virus induced cytopathogenicity by plaque reduction assay. It is filed as functional, organism-based. The conditions noted are these: Human alphaherpesvirus 1, KOS.
Series [20] relates to Human alphaherpesvirus 2. Kind of series: Antiviral activity against HSV-2 infected in African green monkey Vero cells assessed as reduction in virus induced cytopathogenicity by plaque reduction assay. It is filed as functional, organism-based. As to conditions: Human alphaherpesvirus 2, Vero.
A short description of series [21]: Inhibition of DNA polymerase (unknown origin). More on the design: species or system Homo sapiens.
Series [22] has as its system Human immunodeficiency virus 1. Kind of series: Antiviral activity against HIV-1 harboring L100I mutant infected in human MT4 cells assessed as virus-induced cytopathicity treated for 5 days by MTT assay. It is filed as functional, organism-based. The conditions noted are these: Human immunodeficiency virus 1, MT4, 120 h.

As for `COC(=O)c1c(C)cc(OC)c(=O)c(O)c1O`, in [1], the EC50 amounted to 0.93 µM.

Consider `COC(=O)c1c(C)cc(OC)c(=O)c(O)c1OC`, for which the EC50 in series [2] is 5.6 µM. In [3], this compound had an IC50 of 13.5 µM.

In the case of `O=C(Oc1ccc2c(c1OC(=O)c1ccccc1)C(=O)c1ccccc1C2=O)c1ccccc1`, in series [4], the concentration for a half-maximal effect (EC50) is over 100 µM. Further, the CC50 at 72 h in series [5] was about 100 µM. Further, the IC50 in series [6] was 12 µM.

`O=C1c2ccccc2C(=O)c2c1ccc(O)c2O` [ATHRAQUINONES A]: the IC50 in series [6] was 79 µM; in series [7] it was over 100 µM.

`COc1cc(C)c(C(=O)c2ccc(-c3ccccc3)cc2)c(O)c(O)c1=O` came in with a 50% effective concentration (EC50) in [8] of 0.22 µM.

The compound `COc1cc(OC)cc(OC(=O)c2ccc(C(F)(F)F)cc2Nc2cc(Cl)ccc2C)c1` showed an EC50 in series [9] of 5 µM. The IC50 in [10] and in series [6] was 16.1 µM in each case. In [11], the CC50 at 24 h is over 50 µM.

For `Nc1nn(C(=O)c2ccc(Cl)cc2)c(N)c1C(=S)Nc1ccccc1`, the results for the IC50 in [10] and in series [3] were 17 µM and 7 µM, respectively. The EC50 in [12] turned out to be 25 µM. For the same compound, in series [13], the CC50 is 44 µM.

On to `NC(=O)c1c(N)sc2c1CCCCC2`, for which the half-maximal inhibitory concentration (IC50) in series [7] turned out to be 2 µM.

For the compound `O=C(Nc1sc2c(c1C(=O)Nc1ccccn1)CCCCC2)c1ccc(O)c(O)c1`, the IC50 in [7] is 0.84 µM.

`CC1=CC(c2ccccc2)n2nc(NC(=O)CCCc3ccc(C)cc3)nc2N1` (stereo not drawn): the IC50 in series [14] is 13.1 µM; in series [10], over 100 µM.

`CC(C)(C)c1ccc(C(=O)N/N=C/c2c(O)ccc3ccccc23)cc1`: the IC50 in [14] was found to be 3.5 µM; in series [16], 12.5 µM; in series [17] it was 0.8 µM. In addition, the half-maximal effective concentration (EC50) in series [15] worked out at 1.5 µM.

As to `COc1ccc(-c2cccc(C(N)=O)c2)cc1/C=N/Nc1nc(-c2ccc([N+](=O)[O-])cc2)cs1`, the IC50 in [18] came to 4.5 µM; in series [6] it was 8 µM.

Turning to `O=c1oc(-c2ccc(O)c(O)c2)nc2sc3ccccc3c12`, the concentration for half-maximal inhibition (IC50) in series [7] is 0.53 µM.

As to `Cc1cc(O)c(=O)c(O)c(O)c1C(=O)c1ccc(-c2ccccc2)cc1`, the EC50 amounted to 0.052 µM in series [8], 0.052 µM in series [19] and 0.05 µM in series [20].

Regarding `Nc1ccc(S(=O)(=O)N2CCN(C(=O)c3cc(O)c(O)c(O)c3)CC2)cc1`, the IC50 in series [10] is over 50 µM.

As to `COc1ccc2ccccc2c1/C=N/NC(=O)c1ccc(O)c(O)c1`, the IC50 was 15 µM in series [18] and over 50 µM in [21].

On to `O=C1Nc2ccccc2/C1=N/Nc1nc(-c2ccc(O)c(O)c2)cs1`, for which, in series [6], the IC50 was 1.4 µM.

For the compound `Cn1c(-c2ccc(-c3ccccc3)cc2)cs/c1=N/N=C1\C(=O)Nc2ccc(Cl)cc21`, the IC50 worked out at 10 µM in series [18] and 9.8 µM in series [17].

For `N#Cc1ccc(-c2csc(NN=C3C(=O)Nc4ccccc43)n2)cc1`, the IC50 in [18] was found to be 1.3 µM; in [17], 9.5 µM.

With `O=C(Nc1nc2n(n1)C(c1ccccc1)C=C(c1ccccc1)N2)c1ccc(O)c(O)c1` (stereo not drawn), the IC50 in [14] came to 1.86 µM; in [10], 20.5 µM.

Turning to `COc1c(/C=C/C(=O)c2ccc(-c3ccccc3)cc2)ccc2ccccc12`, the IC50 is 6 µM in [18] and 4 µM in series [6].

For `COC(=O)c1c(C)cc(O)c(=O)c(O)c1Br`, in series [22], the EC50 stood at 2.2 µM.

For `COc1ccc2ccccc2c1/C=N/NC(=O)c1ccc(C(C)(C)C)cc1`, the IC50 was determined as 3 µM in series [18] and 2 µM in [21].

Turning to `COc1ccccc1C(=O)N1CCC(NC(=O)c2cc(O)c(O)c(O)c2)CC1`, the IC50 in [10] came out at 39.9 µM; in series [3] it was 13.1 µM.

As for `COC(=O)c1c(C)cc(O)c(=O)c(O)c1O`, the EC50 in series [2] worked out at 6 µM; in series [8], 0.19 µM; in series [19], 0.19 µM; in series [20], 0.4 µM. Moreover, in [3], the IC50 was found to be 1.5 µM.
